Test results reported in patent US5096886A, “Antibacterial polypeptides” (Kabigen AB, priority 1989, dated 1992).
No end group written: not given here.

Key:
Type in all cases: cell-based
[1] = tested on: Acinetobacter calcoaceticus, Ac11; assay: Antibacterial lethal concentration, thin agarose plates
Experimental: (§1) The polypetide obtained in Example 2 was tested for antibacterial activity against different bacteria, the activity being given as lethal concentrations in micro-moles per liter (μM).
(§2) The four last strains of E. coli were obtained from Olof Soderlind, SVA, Uppsala and they are clinical isolates that are pathogenic to piglets. Typing of O and K antigens are indicated after the strain number. Lethal concentration is the lowest concentration of cecropin that inhibits growth of the respective bacteria in thin agarose plates (see Hultmark, D. et al. EMCO J. 2, 571-576 (1983).

[2] = tested on: Bacillus megaterium, Bm11; assay: as above
Experimental: as §1, §2

[3] = tested on: Escherichia coli 853/67, 0149, K88; assay: as above; conditions: clinical isolate pathogenic to piglets
Experimental: as §1, §2

[4] = tested on: Escherichia coli Bd2221/75, O8, K88; assay: as above; conditions: clinical isolate pathogenic to piglets
Experimental: as §1, §2

[5] = tested on: Escherichia coli Bd4462/84, O101, K99; assay: as above; conditions: clinical isolate pathogenic to piglets
Experimental: as §1, §2

[6] = tested on: Escherichia coli Bd4468/84, O64, K99; assay: as above; conditions: clinical isolate pathogenic to piglets
Experimental: as §1, §2

[7] = tested on: Escherichia coli K12, D21; assay: as above; conditions: lowest concentration that inhibits growth in thin agarose plates
Experimental: as §1, §2

Proteus vulgaris, Pv11 = assay: as above
Experimental: as §1, §2

[8] = tested on: Pseudomonas aeruginosa, OT97; assay: as above
Experimental: as §1, §2

[9] = tested on: Salmonella typhimurium, LT2; assay: as above
Experimental: as §1, §2

[10] = tested on: Staphylococcus aureus, Cowan 1; assay: as above
Experimental: as §1, §2

Streptococcus pyogenes = assay: as above
Experimental: as §1, §2

bacteria = assay: Overall comparison of antibacterial activity of the two forms; conditions: comparison of the C-terminal amide with the free-acid form (Example 3)
Experimental: as §1, §2

Row | Substance | Antibacterial activity as lethal concentration [1] [µM] | Antibacterial activity as lethal concentration [2] [µM] | Antibacterial activity as lethal concentration [3] [µM] | Antibacterial activity as lethal concentration [4] [µM] | Antibacterial activity as lethal concentration [5] [µM] | Antibacterial activity as lethal concentration [6] [µM] | Antibacterial activity as lethal concentration [7] [µM] | Antibacterial activity as lethal concentration (Proteus vulgaris, Pv11) [µM] | Antibacterial activity as lethal concentration [8] [µM] | Antibacterial activity as lethal concentration [9] [µM] | Antibacterial activity as lethal concentration [10] [µM] | Antibacterial activity as lethal concentration (Streptococcus pyogenes) [µM] | antibiotic quality, amidated form versus free acid (bacteria)
1 | SWLSKTAKKLENSAKKRISEGIAIAIQGGPR [P1-OH, H2 N-Ser-Trp-Leu-Ser-Lys-Thr-Ala-Lys-Lys-Leu-Glu-Asn-Ser-Ala-Lys-Lys-Arg-Ile- Ser-Glu-Gly-Ile-Ala-Ile-Ala-Ile-Gln-Gly-Gly-Pro-Arg-COOH] | 0.5 | 5.3 | 0.6 | 0.7 | 0.8 | 0.6 | 0.4 | 12 | 13 | 1.7 | > 520 | 44 | –
2 | SWLSKTAKKLENSAKKRISEGIAIAIQGGPR-NH2 [P1-NH2] | 0.2 | 1.8 | 0.9 | 0.6 | 0.7 | 0.3 | 0.3 | 5.7 | 5.9 | 0.9 | > 490 | 19 | better antibiotic
